Data taken from paper PMC11062899, “De novo development of small cyclic peptides that are orally bioavailable” (Nature Chemical Biology, 2023).
Values joined by “and” are separate entries in the source; they are usually repeats but may differ in a detail not shown here. Equal values may be shown once. Read-outs that look alike come from different tables or passages of the source. Blank lines part the entries; values can stand above or below the compound they belong to.

How the values were obtained:
in vivo = conditions: rat
Experimental: Male Wistar Han rats (250–350 g) obtained at an age of 9–10 weeks from Charles River Laboratories were used for the studies and kept in housing groups of two or three. Experiments were performed at the age of 10–11 weeks. Intravenous (i.v.) administrations were carried out using tail vein injections. Peptides were dissolved in pure DMSO and diluted with 5% Cremophor EL in water (5% DMSO final) at a concentration of 0.5 mg ml^−1. I.v. administration was carried out at a dose of 1 mg kg^−1 body weight via the left lateral tail vein of rats (n = 3) using an Insyte-W 24 G × 0.75 in. (0.7 mm × 19 mm) temporary peripheral venous catheter (BD Biosciences, 381312). Before injecting the peptide solution, a correct placement of the catheter was confirmed by an apparent reflux of blood through the catheter. Orally (p.o.) administrated peptides were dissolved in DMSO and diluted with 10% Cremophor EL in water (5% DMSO final) at a concentration of 1 mg ml^−1 and administrated by oral gavage to rats (n = 3) at a dose of 10 mg kg^−1. Rats used for oral administration were fasted overnight for 14 h and provided access to food again 2 h after administration, whereas access to water was not restricted throughout the whole experimental procedure. Volumes of 100 μl of blood samples were collected via the right lateral tail vein at different timepoints after i.v. or p.o. administration into heparinized tubes (Sarstedt, 20.1282); the samples were stored on ice for up to 4 h; and plasma was obtained by centrifugation at 2,000g for 5 min at 4 °C. A volume of 40 μl of plasma was added to 120 μl of an acetonitrile:water (9:1) solution containing an internal standard (5 μg ml^−1). Samples were vortexed for 10 s and sonicated for 10 min, and precipitated plasma proteins were pelleted by centrifugation at 16,000g for 15 min at 4 °C. Volumes of 120 μl of supernatant were transferred to a new tube, and solvent was evaporated in a rotary vacuum concentrator (RVC 2–33 CDplus IR, Christ) for 2 h at 40 °C. Dried residues were dissolved in 20 μl of a water:acetonitrile (7:3) (v/v) solution, centrifuged at 14,000g for 5 min and analyzed by LC–MS. Peptides were quantified by extracting ion chromatograms corresponding to their respective mass, integrating the area under the peptide peak and calculating the concentrations by normalization to a calibration curve. Calibration curves were prepared by analyzing spiked samples of blood or plasma with known concentrations of peptide. The absolute oral bioavailability was calculated using equation (6).6 F=AUCp.o./AUCi.v.×Dosei.v./Dosep.o.×100 where AUCp.o. and AUCi.v. are calculated from a plasma concentration versus time curve using the linear trapezoidal rule, and Dosei.v. and Dosep.o. are the intravenously or orally administrated amount of peptide in mg kg^−1.

[1] = Peptide stability in simulated intestinal fluid (SIF); assay type: in vitro ADME, porcine; parameters: remaining at 8 h: dose or concentration left out as unconfirmed; conditions: pH 6.8
Outline: (§1)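 Peptide from a 1 mM DMSO stock was added to fluid pre-warmed at 37 °C. SGF was pH 1.2 NaCl with porcine pepsin (0.32 g per 100 ml), and SIF was pH 6.8 potassium phosphate with porcine pancreatin (1 g per 100 ml). Supernatant peptide was quantified by LC–MS, with residual expressed as T1/T0.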

porcine pancreatin = test: as above; assay type: in vitro ADME; parameters: remaining at 8 h: dose or concentration left out as unconfirmed; conditions: after 8 h vs 0 h (TIC); for SIF stability, Residual peptide Average: average of R1-R3; for SIF stability, Residual peptide: single replicates R1-R3
Outline: as §1

human α-thrombin = human α-thrombin (Homo sapiens, UniProt P00734); test: Screen of 8,448-member cyclic peptide library against thrombin (crude reactions, 10 μM); assay type: biochemical; conditions: 10 μM crude peptide, slopes normalized to DMSO; for Residual thrombin activity: Replica: repeated acylation and screen
Experimental: The cyclic peptides were N-acylated with activated carboxylic acids as follows. Volumes of 25 nl of cyclic peptides and 25 nl of activated carboxylic acids were transferred in a combinatorial fashion to 384-well microplates (Greiner, 781076) using an Echo 650 acoustic liquid handler (Labcyte). Plates were centrifuged at 2,000g for 2 min and incubated at room temperature for 8 h. […] The reaction products were screened for thrombin inhibition as follows. […] Thrombin inhibition was determined by measuring the fluorescent gain over time. Fluorescence intensity was measured on a Tecan Infinite […] microplate reader for 30 min at 25 °C with a fluorescent readout every 3 min (excitation: 360 nm, emission: 465 nm). Protease inhibition was calculated by comparing the enzymatic activity to a control without cyclic peptide. page 48: Supplementary Tables Supplementary Table 1 […] Cyclic peptide high-throughput screen. Category Parameter Description Assay Type of assay In vitro Target Human α thrombin Primary measurement Proteolytic cleavage of fluorogenic substrate Key reagents […] (Bachem) Assay protocol Described in Materials section “Thrombin library synthesis and screening” Additional comments - […] Library composition Cyclic peptides Source Combinatorial synthesis. Described in Methods section “Thrombin library synthesis and screening” Additional comments - Screen Format 384 well microtiter plates (Greiner, 781076) Concentration(s) tested 10 µM Plate controls 20 wells DMSO, 4 wells human α thrombin inhibitor R-11-25-2 (DOI: 10.1039/d0sc01944e) Reagent/ compound dispensing system Echo 650 (Beckman Coulter), […]) Detection instrument and software Tecan Infinite […] microplate reader Assay validation/QC Z' score: 0.86 Correction factors - Normalization Percent fluorescent gain over time as compared to DMSO Additional comments - […] Additional assay(s) Resynthesis and retesting of 20 best hits in original assay Confirmation of hit purity and structure Compounds were resynthesized and verified analytically Additional comments - 47

[2] = male, Wistar Han, iv, 1 mg/kg, Concentration in blood samples
[3] = male, Wistar Han, po, 10 mg/kg, Concentration in blood samples
[4] = pig, simulated gi fluid, 8 h, 37 °C, read-out: Proteolytic stability: SIF (8 h) % remaining
[5] = simulated gi fluid, 8 h, 37 °C, read-out: Proteolytic stability: SIF (8 h) % remaining
[6] = male, Wistar Han, iv, 1 mg/kg, Plasma Concentration (uM)

SMILES: O=C1C[C@H]2CCCN2C(=O)[C@H](Cc2ccccc2)NC(=O)[C@@H](NC(=O)c2ccc(Cl)cc2)CCC=CCCCCN1 (mixture of isomers) [peptide 46]
Concentration in blood samples (in vivo; male, Wistar Han, iv, 1 mg/kg, 1 h): 0.09 µM
level at time molar at 0.08 h (in vivo; [2]): 1.31 µM
level at time molar at 0.25 h (in vivo; [2]): 0.59 µM
level at time molar at 0.5 h (in vivo; [2]): 280 nM
level at time molar at 1 h (in vivo; [2]): 120 nM
level at time molar at 2 h (in vivo; [2]): 0.0535 µM
level at time molar at 0.5 h (in vivo; [3]): 290 nM
level at time molar at 1 h (in vivo; [3]): 240 nM
level at time molar at 2 h (in vivo; [3]): 0.2 µM
level at time molar at 8 h (in vivo; [3]): 17.1 nM
bioavailability (in vivo; po): 18.4 ± 1.9%
Cmax (in vivo; po, 10 mg/kg): 400 ± 120 nM
remaining at 8 h [1, 4]: 93 ± 12%

SMILES: CN1CCC(=O)NCCSCCS(=O)(=O)CCSC[C@H](NC(=O)c2ccc(Cl)s2)C(=O)N[C@@H](Cc2ccccc2)C1=O [compound 14]
SIF stability, Residual peptide Average (porcine pancreatin): 87.22
SIF stability, Residual peptide (porcine pancreatin): 90.22 and 74.69 and 96.74
remaining at 8 h [1, 4]: 87 ± 11%
Residual thrombin activity: Screen (human α-thrombin): 29.3
Residual thrombin activity: Replica (human α-thrombin): 33.0

SMILES: O=C1C[C@H]2CCCN2C(=O)[C@H](Cc2ccccc2)NC(=O)[C@@H](NC(=O)c2ccc(Cl)s2)CSCc2cccc(n2)CSCCN1 [compound 31]
SIF stability, Residual peptide Average (porcine pancreatin): 75.90
SIF stability, Residual peptide (porcine pancreatin): 75.23 and 67.97 and 84.49
remaining at 8 h [1, 5]: 76 ± 8%

SMILES: O=C1C[C@H]2CCCN2C(=O)[C@H](Cc2ccccc2)NC(=O)[C@@H](NC(=O)c2ccc(Cl)s2)CCSCc2cccc(n2)CSCCN1 [compound 33]
SIF stability, Residual peptide Average (porcine pancreatin): 68.57
SIF stability, Residual peptide (porcine pancreatin): 74.90 and 62.29 and 68.52
remaining at 8 h [1, 5]: 69 ± 6%

SMILES: O=C1C[C@H]2CCCN2C(=O)[C@H](Cc2ccccc2)NC(=O)[C@@H](NC(=O)c2ccc(Cl)s2)CCCSCc2cccc(n2)CSCCN1 [compound 35]
SIF stability, Residual peptide (porcine pancreatin): 32.04 and 28.68 and 33.58
remaining at 8 h ([1]; pig, after 8 h vs 0 h (TIC), average of R1-R3, read-out: SIF stability, Residual peptide Average): 31.4%
remaining at 8 h [1, 5]: 31 ± 3%

SMILES: O=C1CSCCC[C@H](NC(=O)c2ccc(Cl)s2)C(=O)N[C@@H](Cc2ccccc2)C(=O)N2CCC[C@@H]2CC(=O)NCCSC1 [compound 37]
SIF stability, Residual peptide Average (porcine pancreatin): 83.45
SIF stability, Residual peptide (porcine pancreatin): 93.62 and 67.15 and 89.58
remaining at 8 h [1, 5]: 83 ± 14%

SMILES: O=C1C[C@H]2CCCN2C(=O)[C@H](Cc2ccccc2)NC(=O)[C@@H](NC(=O)c2ccc(Cl)s2)CSCCS(=O)(=O)CCSCCN1 [peptide 11]
SIF stability, Residual peptide Average (porcine pancreatin): 14.00
remaining at 8 h [1, 5]: 14 ± 4.4%
Residual thrombin activity: Screen (human α-thrombin): 3.1
Residual thrombin activity: Replica (human α-thrombin): 1.5

SMILES: O=C1C[C@H]2CCCN2C(=O)[C@H](Cc2ccccc2)NC(=O)[C@@H](NC(=O)c2ccc(Cl)s2)CCC=CCCCCN1 [peptide 43]
level at time molar at 0.08 h (in vivo; [6]): 3.19 µM
level at time molar at 0.25 h (in vivo; [6]): 1.63 µM
level at time molar at 2 h (in vivo; [6]): 0.29 µM
Tmax (in vivo; male, Wistar Han, po): 30 min
bioavailability (in vivo; po): 4.5 ± 2.5%
Cmax (in vivo; po, 10 mg/kg): 183 ± 96 nM
remaining at 8 h [1, 4]: 91 ± 9%

The next lines start with the values.

SIF stability, Residual peptide Average (porcine pancreatin): 62.79
SIF stability, Residual peptide (porcine pancreatin): 66.10 and 55.58 and 66.70
remaining at 8 h [1, 5]: 63 ± 6%
SMILES: O=C1C[C@H]2CCCN2C(=O)[C@H](Cc2ccccc2)NC(=O)[C@@H](NC(=O)c2ccc(Cl)s2)CCSC/C=C/CSCCN1 [compound 34]

SIF stability, Residual peptide Average (porcine pancreatin): 42.16
SIF stability, Residual peptide (porcine pancreatin): 44.45 and 36.26 and 45.77
remaining at 8 h [1, 5]: 42 ± 5%
SMILES: O=C1C[C@H]2CCCN2C(=O)[C@H](Cc2ccccc2)NC(=O)[C@@H](NC(=O)c2ccc(Cl)s2)CCCSC/C=C/CSCCN1 [compound 36]

SIF stability, Residual peptide Average (porcine pancreatin): 82.44
SIF stability, Residual peptide (porcine pancreatin): 91.81 and 71.29 and 84.22
remaining at 8 h [1, 5]: 82 ± 10%
SMILES: O=C1C[C@H]2CCCN2C(=O)[C@H](Cc2ccccc2)NC(=O)[C@@H](NC(=O)c2ccc(Cl)s2)CSC/C=C/CSCCN1 [peptide 32]
